Laboratory results published in patent publication US8063225B2, “Tricyclic compound derivatives useful in the treatment of neoplastic diseases, inflammatory disorders and immunomodulatory disorders” (Chembridge Corporation, priority 2006, dated 2011).

Columns and labels:
IGF1 receptor = target: T1, IGF1 receptor (Homo sapiens, UniProt P08069); test: ELISA-based assay of IGF1 receptor autophosphorylation inhibition in cells; type: cell-based; settings: IGF1R phosphorylation inhibition in MCF7 cells
T1 construct: MCF7 human breast cancer cells expressing IGF1 receptor; endogenous in cells; host or cells: MCF7 human breast cancer cells
Description: In another embodiment, compounds that interact with the IGF1R kinase domain are tested in a cell-based assay system. In accordance with this embodiment, cells expressing a full-length IGF1 receptor or a fragment thereof containing the IGF1R kinase domain, are contacted with a candidate or a control compound and the ability of the compound to block tyrosine kinase activity of IGF1R within a cell is determined. This assay may be used to screen a single compound or a large library of candidate compounds. Typically, the cells or cell lines are of mammalian origin and they can express the IGF1 receptor, or functional IGF1R kinase domain fragment, endogenously or be genetically engineered to express the IGF1R, or functional fragment thereof. The ability of the candidate compound to inhibit IGF1R kinase activity can be determined by methods known to those skilled in the art. For example, the inhibition can be determined by ELISA-type assay or Western blot analysis with cell lysates or immunoprecipitated IGF1R receptor using various anti-IGF1R and anti-phosphotyrosine antibodies.
In general, cells expressing IGF1R are treated with modulators (i.e., inhibitors or activators) of IGF1R kinase activity and cell lysates are produced from these treated cells. IGF1Rs are isolated from the lysate by immunoprecipitation and analyzed for phosphotyrosine content. Alternatively, or in addition, cellular protein substrates phosphorylated by IGFR may be immunoprecipitated from the lysates and their degree of tyrosine phosphorylation determined.
MCF7 human breast cancer cells expressing IGF1 receptor or an engineered […] fibroblast cell line NIH 3T3 overexpressing full-length IGF1R are an exemplary cellular models in which to perform such assays. Such cells may be maintained in DMEM medium supplemented with 10% fetal bovine serum (FBS), 4% L-glutamine, 1% antibiotic solution (penicillin-Streptomycin) in a humidified atmosphere of 95% air and 5% CO2 at 37° C. Confluent cells in T175 cell culture flasks are incubated overnight with serum-free DMEM medium. After the serum starvation step, the cells are detached and split into a standard 96-well cell culture plate (one T175 flask per plate, 30 μl of cell suspension per plate well). Tested inhibitors from their 10 mM stock solutions in DMSO are subsequently added at various concentrations in serum-free DMEM medium for 1 hour incubation at 37° C. in CO2-incubator; total DMSO concentration in both treated and control wells is adjusted to 1%. Cells are then stimulated for 10 minutes with 100 nM IGF-1 added in 30 μl DMEM. After treatment, cells are lysed by addition of 30 μl of 4× lysis buffer (phosphate-buffered saline (PBS), 2% Triton-X100, 1 mM phenylmethylsulphonyl fluoride (PMSF) and 8 mM activated orthovanadate), mixing and incubation for 15 minute at room temperature. To prepare assay plates, 96-well ELISA Plates (Pierce Chemical, Reacti-bind plates) were coated by goat-anti-rabbit Fc antiserum by adding 0.25 μg antiserum per well in 0.2M sodium bicarbonate buffer per well and incubating overnight at 4° C. After incubation, the plate is washed three times by PBS with 0.02% Tween-20, supplied with 25 ng/50 μl per well of anti-IGF1R antibody (C-20, Santa Cruz Biotechnology) and incubated for several hours to overnight. Prior to the addition of the prepared cellular lysates, the antibody solution is aspirated, wells washed with PBS and supplied with 25 μl per well of Starting Block buffer (Pierce Chemical).
To measure tyrosine phosphorylation of the beta-subunits of the IGF1R, 25-50 μl of the lysates are transferred from the stimulation plate to the wells of the prepared assay plate and incubated overnight at 4° C. The wells are washed with PBS with 0.02% Tween-20, incubated with 50 μl of 1:3000 dilution of anti-phosphotyrosine 4G10-HRP antibody conjugate (Upstate Biotechnology) for 2 hours at room temperature and washed again. […]

Jak2 = target: T2, Jak2 (Homo sapiens, UniProt O60674); test: Tyrosine kinase assay (Kinase-Glo or AlphaScreen), Jak2; settings: biochemical tyrosine kinase assay
T2 construct: 6×His- or GST-tagged kinase domain fragments of the corresponding RTKs expressed in baculovirus system; host or cells: baculovirus system
Outline: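 Test compounds, eight concentrations from 1 nM to 20 μM, were incubated with tagged recombinant kinase domain, poly(Glu-Tyr, 4:1) and 10 μM ATP. After 60 minutes at 37° C, Kinase-Glo luminescence quantified unconsumed ATP.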

T1 sequence (P08069 741-1367 limits assumed): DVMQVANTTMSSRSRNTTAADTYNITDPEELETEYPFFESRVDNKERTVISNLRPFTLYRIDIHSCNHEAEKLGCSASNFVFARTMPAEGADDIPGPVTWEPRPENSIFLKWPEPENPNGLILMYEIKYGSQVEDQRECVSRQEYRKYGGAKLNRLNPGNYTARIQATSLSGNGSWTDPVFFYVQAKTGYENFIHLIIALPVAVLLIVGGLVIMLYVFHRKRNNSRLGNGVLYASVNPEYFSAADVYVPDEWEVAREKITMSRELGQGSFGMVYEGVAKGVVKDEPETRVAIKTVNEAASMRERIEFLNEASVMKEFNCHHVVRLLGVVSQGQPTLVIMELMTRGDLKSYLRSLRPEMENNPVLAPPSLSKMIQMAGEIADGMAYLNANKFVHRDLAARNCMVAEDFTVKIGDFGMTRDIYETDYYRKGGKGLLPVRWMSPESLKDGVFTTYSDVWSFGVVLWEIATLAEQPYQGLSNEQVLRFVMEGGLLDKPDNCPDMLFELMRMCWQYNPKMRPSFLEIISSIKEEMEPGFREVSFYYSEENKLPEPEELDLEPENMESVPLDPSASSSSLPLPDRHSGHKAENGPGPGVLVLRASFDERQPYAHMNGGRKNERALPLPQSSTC
T1 sequence (P08069 31-736 partner limits assumed): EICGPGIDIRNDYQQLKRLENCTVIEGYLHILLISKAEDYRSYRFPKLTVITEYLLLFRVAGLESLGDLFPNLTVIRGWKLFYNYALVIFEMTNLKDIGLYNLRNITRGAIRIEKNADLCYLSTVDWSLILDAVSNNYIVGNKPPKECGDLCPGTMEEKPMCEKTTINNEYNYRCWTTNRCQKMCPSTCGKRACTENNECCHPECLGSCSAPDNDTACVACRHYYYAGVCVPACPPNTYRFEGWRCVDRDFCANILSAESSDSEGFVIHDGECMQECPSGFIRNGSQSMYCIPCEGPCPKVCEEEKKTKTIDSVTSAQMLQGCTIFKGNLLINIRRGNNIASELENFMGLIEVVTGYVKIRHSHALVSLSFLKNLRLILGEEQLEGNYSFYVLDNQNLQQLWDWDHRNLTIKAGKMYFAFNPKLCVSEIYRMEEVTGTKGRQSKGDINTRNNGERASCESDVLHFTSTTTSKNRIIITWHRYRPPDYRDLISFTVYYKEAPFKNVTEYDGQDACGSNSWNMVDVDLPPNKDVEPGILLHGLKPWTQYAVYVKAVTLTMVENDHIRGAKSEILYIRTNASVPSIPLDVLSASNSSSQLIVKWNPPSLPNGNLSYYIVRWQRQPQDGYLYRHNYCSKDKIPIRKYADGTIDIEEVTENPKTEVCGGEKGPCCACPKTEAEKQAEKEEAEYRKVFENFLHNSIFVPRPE
T2 sequence (O60674 849-1124 limits assumed, species assumed): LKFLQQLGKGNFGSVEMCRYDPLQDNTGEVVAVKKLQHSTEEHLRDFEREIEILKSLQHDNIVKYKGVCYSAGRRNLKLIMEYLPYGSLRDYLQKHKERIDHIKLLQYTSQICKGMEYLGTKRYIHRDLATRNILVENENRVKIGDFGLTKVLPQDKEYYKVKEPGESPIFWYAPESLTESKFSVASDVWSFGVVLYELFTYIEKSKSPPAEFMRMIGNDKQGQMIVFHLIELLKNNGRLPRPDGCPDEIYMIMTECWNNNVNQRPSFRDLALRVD

Compound	IC50 (IGF1 receptor)	IC50 (Jak2)
COc1ccc(OC[C@H](O)CNc2cc[nH]c(=O)c2-c2nc3cc4c(cc3[nH]2)C(=O)N(C2CCN(C)CC2)C4=O)c(OC)c1OC [compound 93]	0.5 to 5 µM	> 15 µM
Cc1ccc(OC[C@@H](O)CNc2cc[nH]c(=O)c2-c2nc3cc4c(cc3[nH]2)C(=O)N([C@H]2CCN(C)C2)C4=O)c(C)c1 [compound 106]	5 to 15 µM	0.5 to 5 µM
O=C1c2cc3nc(-c4c(NC[C@@H](O)c5cccc(Cl)c5)cc[nH]c4=O)[nH]c3cc2C(=O)N1[C@@H]1CN2CCC1CC2 [compound 33]	> 15 µM	0.5 to 5 µM
CN1CCC(N2C(=O)c3cc4nc(-c5c(NC[C@@H](O)COc6cccc(Cl)c6F)cc[nH]c5=O)[nH]c4cc3C2=O)CC1 [compound 96]	5 to 15 µM	5 to 15 µM
Cc1ccc(OCC(O)CNc2cc[nH]c(=O)c2-c2nc3cc4c(cc3[nH]2)C(=O)N(C2CCN(C)CC2)C4=O)c(C)c1 (centres unmarked) [compound 15]	0.5 to 5 µM	0.5 to 5 µM
O=C1c2cc3nc(-c4c(NC[C@@H](O)c5cccc(Cl)c5)cc[nH]c4=O)[nH]c3cc2C(=O)N1C[C@@H]1CCCO1 [compound 29]	> 15 µM	> 15 µM
Cc1ccc2c(ccn2C[C@H](O)CNc2cc[nH]c(=O)c2-c2nc3cc4c(cc3[nH]2)C(=O)N(C2CCN(C)CC2)C4=O)c1 [compound 131]	0.5 to 5 µM	0.5 to 5 µM
C[C@H](O)CN1C(=O)c2cc3nc(-c4c(NC[C@@H](O)c5cccc(Cl)c5)cc[nH]c4=O)[nH]c3cc2C1=O [compound 31]	5 to 15 µM	5 to 15 µM
CN1CCC(N2C(=O)c3cc4nc(-c5c(N[C@H](CO)Cc6c[nH]cn6)cc[nH]c5=O)[nH]c4cc3C2=O)CC1 [compound 2]	> 15 µM	> 15 µM
CN1CCC(N2C(=O)c3cc4nc(-c5c(NC[C@@H](O)COc6ccc7ccccc7c6)cc[nH]c5=O)[nH]c4cc3C2=O)CC1 [compound 88]	0.5 to 5 µM	0.5 to 5 µM
CC(C)(CO)CN1C(=O)c2cc3nc(-c4c(NC[C@@H](O)c5cccc(Cl)c5)cc[nH]c4=O)[nH]c3cc2C1=O [compound 26]	5 to 15 µM	0.5 to 5 µM
Cc1ccc(OC[C@H](O)CNc2cc[nH]c(=O)c2-c2nc3c(C)c4c(cc3[nH]2)C(=O)N(C2CCN(C)CC2)C4)c(C)c1 [compound 139]	0.5 to 5 µM	0.5 to 5 µM
Cc1cc(C)n(C[C@H](O)CNc2cc[nH]c(=O)c2-c2nc3cc4c(cc3[nH]2)C(=O)N(C2CCN(C)CC2)C4=O)n1 [compound 92]	0.5 to 5 µM	5 to 15 µM
Cc1ccc(OC[C@H](O)CNc2cc[nH]c(=O)c2-c2nc3cc4c(cc3[nH]2)C(=O)N(C2CCN(C)CC2)C4=O)cc1Cl [compound 99]	> 15 µM	0.5 to 5 µM
Cc1ccc(OCC(O)CNc2cc[nH]c(=O)c2-c2nc3cc4c(cc3[nH]2)C(=O)N(CC2CCN(CCO)CC2)C4=O)c(C)c1 (centres unmarked) [compound 37]	5 to 15 µM	0.5 to 5 µM
Cc1cc(C)c(OC[C@H](O)CNc2cc[nH]c(=O)c2-c2nc3cc4c(cc3[nH]2)C(=O)N(C2CCN(C)CC2)C4=O)c(CS(C)(=O)=O)c1 [compound 84]	0.5 to 5 µM	0.5 to 5 µM
Cc1ccc(OC[C@H](O)CNc2cc[nH]c(=O)c2-c2nc3cc4c(cc3[nH]2)CN(C2CCN(C)CC2)C4=O)c(C)c1 [compound 130]	0.5 to 5 µM	< 0.5 µM
Cc1ccc(OC[C@H](O)CNc2cc[nH]c(=O)c2-c2nc3cc4c(cc3[nH]2)C(=O)N(C2CCNCC2)C4=O)c(C)c1 [compound 142]	< 0.5 µM	0.5 to 5 µM
Cc1ccc(OC[C@@H](O)CNc2cc[nH]c(=O)c2-c2nc3cc4c(cc3[nH]2)C(=O)N([C@@H]2CCN(C)C2)C4=O)c(C)c1 [compound 107]	5 to 15 µM	0.5 to 5 µM

Compound	IC50 (IGF1 receptor)	IC50 (Jak2)
CCN1CCC(N2Cc3cc4nc(-c5c(NC[C@@H](O)COc6ccc(C)cc6C)cc[nH]c5=O)[nH]c4cc3C2=O)CC1 [compound 144]	0.5 to 5 µM	< 0.5 µM
CCN1CCC(N2C(=O)c3cc4nc(-c5c(NC[C@@H](O)COc6ccc(C)cc6C)cc[nH]c5=O)[nH]c4cc3C2=O)CC1 [compound 143]	< 0.5 µM	0.5 to 5 µM
CN1CCC(N2C(=O)c3cc4nc(-c5c(NC[C@@H](O)COc6cccc(-c7ccccc7)c6)cc[nH]c5=O)[nH]c4cc3C2=O)CC1 [compound 89]	0.5 to 5 µM	0.5 to 5 µM
Cc1ccc(OC[C@H](O)CNc2cc[nH]c(=O)c2-c2nc3cc4c(c(C)c3[nH]2)CN(C2CCN(C)CC2)C4=O)c(C)c1 [compound 132]	0.5 to 5 µM	< 0.5 µM
CN1CCC(N2C(=O)c3cc4nc(-c5c(NC[C@@H](O)c6cccc(Cl)c6)cc[nH]c5=O)[nH]c4cc3C2=O)CC1 [compound 1]	< 0.5 µM	0.5 to 5 µM
CCc1cc(C)ccc1OC[C@H](O)CNc1cc[nH]c(=O)c1-c1nc2cc3c(cc2[nH]1)CN(C1CCN(C)CC1)C3=O [compound 141]	0.5 to 5 µM	< 0.5 µM
O=C1c2cc3nc(-c4c(NC[C@@H](O)c5cccc(Cl)c5)cc[nH]c4=O)[nH]c3cc2C(=O)N1CCc1ccncc1 [compound 28]	> 15 µM	5 to 15 µM
CN1CCC(N2C(=O)c3cc4nc(-c5c(NC[C@@H](O)COc6cccc7ccccc67)cc[nH]c5=O)[nH]c4cc3C2=O)CC1 [compound 87]	0.5 to 5 µM	0.5 to 5 µM
Cc1ccc(OC[C@H](O)CNc2cc[nH]c(=O)c2-c2nc3c(C)c4c(cc3[nH]2)C(=O)N(C2CCN(C)CC2)C4=O)c(C)c1 [compound 110]	5 to 15 µM	0.5 to 5 µM
O=C1c2cc3nc(-c4c(NC[C@@H](O)c5cccc(Cl)c5)cc[nH]c4=O)[nH]c3cc2C(=O)N1[C@H]1CN2CCC1CC2 [compound 34]	> 15 µM	0.5 to 5 µM
Cc1c(Cl)cccc1OC[C@H](O)CNc1cc[nH]c(=O)c1-c1nc2cc3c(cc2[nH]1)C(=O)N(C1CCN(C)CC1)C3=O [compound 94]	0.5 to 5 µM	0.5 to 5 µM
Cc1ncsc1CCN1C(=O)c2cc3nc(-c4c(NC[C@@H](O)c5cccc(Cl)c5)cc[nH]c4=O)[nH]c3cc2C1=O [compound 32]	5 to 15 µM	> 15 µM
CN1CCC(N2C(=O)c3cc4nc(-c5c(NC[C@@H](O)COc6c(F)ccc(Cl)c6F)cc[nH]c5=O)[nH]c4cc3C2=O)CC1 [compound 95]	5 to 15 µM	0.5 to 5 µM
Cc1ccc(OC[C@@H](O)CNc2cc[nH]c(=O)c2-c2nc3cc4c(cc3[nH]2)C(=O)N(C2CCN(C)CC2)C4=O)c(C)c1 [compound 64]	> 15 µM	0.5 to 5 µM
CN1CCC(N2C(=O)c3cc4nc(-c5c(NC[C@@H](O)COc6cccc(C(F)(F)F)c6)cc[nH]c5=O)[nH]c4cc3C2=O)CC1 [compound 97]	0.5 to 5 µM	0.5 to 5 µM
Cc1cc(C)c(OC[C@H](O)CNc2cc[nH]c(=O)c2-c2nc3cc4c(cc3[nH]2)C(=O)N(C2CCN(C)CC2)C4=O)c(C)c1 [compound 98]	5 to 15 µM	5 to 15 µM
CN1CCC(N2C(=O)c3cc4nc(-c5c(NC[C@@H](O)COc6cccc(OC(F)(F)C(F)F)c6)cc[nH]c5=O)[nH]c4cc3C2=O)CC1 [compound 91]	0.5 to 5 µM	0.5 to 5 µM
Cc1ccc(Cl)c(C)c1OC[C@H](O)CNc1cc[nH]c(=O)c1-c1nc2cc3c(cc2[nH]1)C(=O)N(C1CCN(C)CC1)C3=O [compound 111]	> 15 µM	0.5 to 5 µM
